Measurements as given in PubChem BioAssay (NCI).
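Method: 48-hour compound exposure of cells in 96-well plates, five concentrations, linear interpolation of endpoints. TGI: concentration producing complete growth inhibition.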

Tests used:
Experiment in all cases: NCI-60 cell line screen, 48 h
786-0 renal = system: 786-0 renal
A498 renal = system: A498 renal
A549 NSCLC = system: A549 NSCLC
BT-549 breast = system: BT-549 breast
CAKI-1 renal = system: CAKI-1 renal
CCRF-CEM leukemia = system: CCRF-CEM leukemia
COLO 205 colon = system: COLO 205 colon
DU-145 prostate = system: DU-145 prostate
EKVX NSCLC = system: EKVX NSCLC
HCT-116 colon = system: HCT-116 colon
HCT-15 colon = system: HCT-15 colon
HL-60(TB) leukemia = system: HL-60(TB) leukemia
HOP-62 NSCLC = system: HOP-62 NSCLC
HS 578T breast = system: HS 578T breast
HT29 colon = system: HT29 colon
IGROV1 ovarian = system: IGROV1 ovarian
K-562 leukemia = system: K-562 leukemia
KM12 colon = system: KM12 colon
LOX IMVI melanoma = system: LOX IMVI melanoma
M14 melanoma = system: M14 melanoma
MALME-3M melanoma = system: MALME-3M melanoma
MCF7 breast = system: MCF7 breast
MDA-MB-231 breast = system: MDA-MB-231 breast
MDA-MB-435 = system: MDA-MB-435
MDA-N = system: MDA-N
MOLT-4 leukemia = system: MOLT-4 leukemia
NCI-H226 lung = system: NCI-H226 lung
NCI-H460 lung = system: NCI-H460 lung
NCI-H522 lung = system: NCI-H522 lung
NCI/ADR-RES ovarian = system: NCI/ADR-RES ovarian
OVCAR-3 ovarian = system: OVCAR-3 ovarian
OVCAR-4 ovarian = system: OVCAR-4 ovarian
OVCAR-5 ovarian = system: OVCAR-5 ovarian
OVCAR-8 ovarian = system: OVCAR-8 ovarian
PC-3 prostate = system: PC-3 prostate
RPMI-8226 leukemia = system: RPMI-8226 leukemia
RXF 393 renal = system: RXF 393 renal
SF-268 CNS = system: SF-268 CNS
SF-295 CNS = system: SF-295 CNS
SF-539 CNS = system: SF-539 CNS
SK-MEL-2 melanoma = system: SK-MEL-2 melanoma
SK-MEL-28 melanoma = system: SK-MEL-28 melanoma
SK-MEL-5 melanoma = system: SK-MEL-5 melanoma
SK-OV-3 ovarian = system: SK-OV-3 ovarian
SN12C renal = system: SN12C renal
SNB-19 CNS = system: SNB-19 CNS
SNB-75 CNS = system: SNB-75 CNS
SR leukemia = system: SR leukemia
SW-620 colon = system: SW-620 colon
T-47D breast = system: T-47D breast
TK-10 renal = system: TK-10 renal
U251 CNS = system: U251 CNS
UACC-257 melanoma = system: UACC-257 melanoma
UACC-62 melanoma = system: UACC-62 melanoma
UO-31 renal = system: UO-31 renal

## Cc1ccnc(NC(=S)Nc2ccccc2Cl)c1
786-0 renal
  TGI: > 100 µM
A498 renal
  TGI: > 100 µM
A549 NSCLC
  TGI: > 100 µM
BT-549 breast
  TGI: > 100 µM
CAKI-1 renal
  TGI: > 100 µM
CCRF-CEM leukemia
  TGI: > 100 µM
COLO 205 colon
  TGI: > 100 µM
DU-145 prostate
  TGI: > 100 µM
EKVX NSCLC
  TGI: > 100 µM
HCT-116 colon
  TGI: > 100 µM
HCT-15 colon
  TGI: > 100 µM
HL-60(TB) leukemia
  TGI: > 100 µM
HOP-62 NSCLC
  TGI: > 100 µM
HS 578T breast
  TGI: > 100 µM
HT29 colon
  TGI: > 100 µM
IGROV1 ovarian
  TGI: > 100 µM
K-562 leukemia
  TGI: > 100 µM
KM12 colon
  TGI: > 100 µM
LOX IMVI melanoma
  TGI: > 100 µM
M14 melanoma
  TGI: > 100 µM
MALME-3M melanoma
  TGI: > 100 µM
MCF7 breast
  TGI: > 100 µM
MDA-MB-231 breast
  TGI: 45.7 µM
MDA-MB-435
  TGI: > 100 µM
MDA-N
  TGI: > 100 µM
MOLT-4 leukemia
  TGI: > 100 µM
NCI-H226 lung
  TGI: > 100 µM
NCI-H460 lung
  TGI: > 100 µM
NCI-H522 lung
  TGI: > 100 µM
NCI/ADR-RES ovarian
  TGI: > 100 µM
OVCAR-3 ovarian
  TGI: > 100 µM
OVCAR-4 ovarian
  TGI: > 100 µM
OVCAR-5 ovarian
  TGI: > 100 µM
OVCAR-8 ovarian
  TGI: > 100 µM
PC-3 prostate
  TGI: > 100 µM
RPMI-8226 leukemia
  TGI: > 100 µM
RXF 393 renal
  TGI: > 100 µM
SF-268 CNS
  TGI: > 100 µM
SF-295 CNS
  TGI: > 100 µM
SF-539 CNS
  TGI: > 100 µM
SK-MEL-2 melanoma
  TGI: > 100 µM
SK-MEL-28 melanoma
  TGI: > 100 µM
SK-MEL-5 melanoma
  TGI: > 100 µM
SK-OV-3 ovarian
  TGI: > 100 µM
SN12C renal
  TGI: > 100 µM
SNB-19 CNS
  TGI: > 100 µM
SNB-75 CNS
  TGI: 71.7 µM
SR leukemia
  TGI: > 100 µM
SW-620 colon
  TGI: > 100 µM
T-47D breast
  TGI: > 100 µM
TK-10 renal
  TGI: > 100 µM
U251 CNS
  TGI: > 100 µM
UACC-257 melanoma
  TGI: > 100 µM
UACC-62 melanoma
  TGI: > 100 µM
UO-31 renal
  TGI: > 100 µM
